Among the test systems are DMS-273; KM-20L2; LXFL 529; SNB-78; DLD-1; DMS-114; HOP-18; XF498; RXF 631.
Assay in all cases: inhibition of tumour cell growth, NCI panel, 48 h

The source of these data is ChEMBL document CHEMBL1201862, “PubChem BioAssay data set” (2004).

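Where inhibition never reached the appropriate level, the endpoint shown equals the highest concentration tested. Otherwise, values were interpolated linearly from a five-concentration, 48-hour dose response in 96-well plates. Abbreviation: GI50, concentration required for 50% inhibition of growth.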 The source made the active and inactive calls. Rule as the data show it: active = GI50 up to about 1.1 µM and inactive = higher.

For `C=CCC1(CC)C(=O)NC(=O)NC1=O` [ETALLOBARBITAL], the GI50 with DMS-273, in the assay on KM-20L2, in the assay with LXFL 529 and in the assay on SNB-78 was > 100 µM (inactive) in each case.
For the molecule `O=C1C=CC(=O)c2cc(Sc3ccccc3)c(=O)c(Sc3ccccc3)cc21`, the GI50 in the assay on DLD-1 is 56.4 µM (inactive); in the assay with DMS-114, 22.2 µM (inactive); in the assay with DMS-273 it was > 100 µM (inactive); in the assay on HOP-18, 71.8 µM (inactive); with KM-20L2, > 100 µM (inactive); in the assay on LXFL 529 it was 26.1 µM (inactive). In addition, the GI50 with XF498 was 86.3 µM (inactive).
Consider `COc1cc(OC)c(C2CC=Cc3c(OC)cc(OC)c(OC)c32)cc1OC` (stereo unspecified), for which the GI50 in the assay on DLD-1, in the assay on DMS-114, in the assay on DMS-273, with HOP-18, with KM-20L2 and in the assay with LXFL 529 was > 100 µM (inactive) throughout. In addition, the GI50 in the assay on SNB-78 and in the assay on XF498 was > 100 µM (inactive) in each case.
Regarding `CCCCCC/C(CC(=O)CCC(=O)NCCc1ccccc1)=N\Nc1ccc([N+](=O)[O-])cc1[N+](=O)[O-]`, the GI50 is 63.7 µM (inactive) in the assay with DLD-1; 20 µM (inactive) with DMS-114; > 100 µM (inactive) in the assay with DMS-273; 59.8 µM (inactive) with HOP-18; > 100 µM (inactive) with KM-20L2; 49.3 µM (inactive) in the assay with LXFL 529. Moreover, the GI50 in the assay with RXF 631 was 64.6 µM (inactive); with SNB-78 it was > 100 µM (inactive).
For the molecule `Cc1cccc(N2C(=O)C(=O)C(c3nc4ccccc4s3)/C(=N/NC(=S)NN)C2=O)c1C` (stereo unspecified), the GI50 in the assay on DMS-114, with DMS-273, in the assay with KM-20L2, with LXFL 529, in the assay on RXF 631 and with SNB-78 was > 100 µM (inactive) in each case. For the same molecule, the GI50 in the assay with XF498 was > 100 µM (inactive).
Consider `Cc1cccc(C)c1CO`, for which the GI50 in the assay with DLD-1, with DMS-114, in the assay on DMS-273, with KM-20L2, in the assay on LXFL 529 and in the assay on RXF 631 was > 100 µM (inactive) each time. For the same molecule, the GI50 with SNB-78 and with XF498 was > 100 µM (inactive) each time.
For the molecule `CCCCC1(C)C=C/C(=C2/C(=O)O/C(=C\C(=O)O)C2=O)O1` (stereo unspecified), the GI50 in the assay on DMS-273, in the assay on HOP-18, in the assay on KM-20L2, with LXFL 529, with RXF 631 and in the assay with SNB-78 was > 100 µM (inactive) each time. Further, the GI50 with XF498 is > 100 µM (inactive).
For `CC(/C(=N/NC(=O)C(N)=O)c1c(Cl)ccc(Cl)c1O)C1(O)C(=O)Nc2ccccc21` (stereo unspecified), the GI50 in the assay on DLD-1 is 35.3 µM (inactive); with DMS-114, 34.4 µM (inactive); with DMS-273 it was 27.4 µM (inactive); in the assay with HOP-18 it was 34.8 µM (inactive); with KM-20L2, 56.2 µM (inactive); with LXFL 529, 32.9 µM (inactive). The values for the GI50 in the assay with RXF 631 and in the assay with SNB-78 were 32.1 µM (inactive) and > 100 µM (inactive), respectively.
For `O=c1c2cc(Br)ccc2nc(-c2ccccc2Cl)n1NCC1(O)OCC(O)C(O)C1O` (stereo unspecified), the GI50 in the assay with DMS-114 is 75.9 µM (inactive); with DMS-273, > 100 µM (inactive); in the assay on KM-20L2, > 100 µM (inactive); in the assay on LXFL 529, 82.8 µM (inactive); with SNB-78 it was > 100 µM (inactive).
With `O=[N+]([O-])c1cccc(C2ON2C2CCCCC2)c1` (stereo unspecified), the GI50 with DLD-1 was 12 µM (inactive); with DMS-114, 19.1 µM (inactive); in the assay on DMS-273 it was 18.4 µM (inactive); in the assay on HOP-18 it was 30.8 µM (inactive); in the assay on KM-20L2, 22.3 µM (inactive); in the assay on LXFL 529, 20.7 µM (inactive). In the assay with SNB-78, the GI50 was 27.4 µM (inactive).
For `COC(=O)/C(C#N)=C1\CCC(C(=O)OC)N1C` (stereo unspecified), the GI50 in the assay on DLD-1, with DMS-114, in the assay with DMS-273, with KM-20L2, in the assay with RXF 631 and with SNB-78 was > 100 µM (inactive) throughout. Besides, the GI50 in the assay on XF498 was > 100 µM (inactive).
For the molecule `OCc1c[te]c(-c2ccccc2)c1`, the GI50 in the assay with DLD-1 is 37.2 µM (inactive); in the assay with DMS-114 it was 26.8 µM (inactive); with DMS-273, 51.4 µM (inactive); with KM-20L2, > 100 µM (inactive); in the assay on LXFL 529, > 100 µM (inactive); with RXF 631, 55.6 µM (inactive). Further, the figures for the GI50 in the assay with SNB-78 and in the assay with XF498 were > 100 µM (inactive) and 0.56 µM (active), respectively.
For the molecule `COc1cc(C2C(C(=O)Nc3ccccc3)=C(C)NC(C)=C2C(=O)Nc2ccccc2)ccc1O`, the GI50 with DLD-1 is 29.1 µM (inactive); with DMS-114 it was 42 µM (inactive); with HOP-18, 99.3 µM (inactive); with KM-20L2, 20.1 µM (inactive); with LXFL 529, 24.3 µM (inactive); with SNB-78 it was 53.5 µM (inactive). The GI50 in the assay on XF498 was 34.2 µM (inactive).
`C(=N\Nc1ccccc1)/c1nc2ccccc2nc1/C=N/Nc1ccccc1`: the GI50 was 11.3 µM (inactive) in the assay with DLD-1; 8.73 µM (inactive) with KM-20L2; 11 µM (inactive) with LXFL 529; 13.6 µM (inactive) with RXF 631; 20.7 µM (inactive) with SNB-78.
Take `COc1cc(OC(=O)c2ccccc2)cc2c1C(=O)C=CC2=O`: the GI50 was 15.4 µM (inactive) in the assay on DLD-1; 10.9 µM (inactive) in the assay on DMS-114; 21.8 µM (inactive) with DMS-273; 16.6 µM (inactive) in the assay with HOP-18; > 56.9 µM (inactive) with KM-20L2; 12.7 µM (inactive) in the assay on LXFL 529. In addition, the GI50 in the assay with RXF 631 is 20 µM (inactive); in the assay with SNB-78, 20.5 µM (inactive); in the assay on XF498, 17.6 µM (inactive).
On to `COc1c(C(=O)c2ccc([N+](=O)[O-])cc2)cc(C(C)(C)C)cc1C(C)(C)C`, for which the GI50 is 54 µM (inactive) in the assay on DLD-1; 22.1 µM (inactive) in the assay on DMS-114; 30.2 µM (inactive) with DMS-273; > 100 µM (inactive) with HOP-18; 35.6 µM (inactive) in the assay with KM-20L2; 31.6 µM (inactive) with LXFL 529. Also, the GI50 is 46.6 µM (inactive) in the assay on SNB-78 and 22.2 µM (inactive) with XF498.
As to `O=C(O)c1ccc([I+]c2ccccc2)cc1`, the GI50 with DLD-1, with DMS-114, in the assay on DMS-273, in the assay on HOP-18, in the assay on KM-20L2 and in the assay on LXFL 529 was > 100 µM (inactive) throughout. Besides, the GI50 in the assay with RXF 631, in the assay with SNB-78 and with XF498 was > 100 µM (inactive) each time.
As for `CCOc1ccc(/N=N/c2ccc3oc(=O)c(/C(C)=N/NC(=O)CC(=O)Nc4cccc(OC)c4)cc3c2)cc1`, the GI50 in the assay on DLD-1 is 13.8 µM (inactive); with DMS-114, 14.3 µM (inactive); in the assay with DMS-273, 24.8 µM (inactive); with HOP-18 it was 17.1 µM (inactive); with KM-20L2, > 31.6 µM (inactive); in the assay with LXFL 529, 11 µM (inactive). In addition, the GI50 in the assay on SNB-78 is 23.6 µM (inactive); in the assay on XF498, 17.5 µM (inactive).
As to `COc1cc2ccn3c4cc(OC)c(OC)cc4cc3c2cc1OC`, the GI50 in the assay with DLD-1 was > 100 µM (inactive); in the assay on DMS-114 it was 50.6 µM (inactive); in the assay on KM-20L2 it was > 100 µM (inactive); with LXFL 529, 78.7 µM (inactive); in the assay on SNB-78 it was > 100 µM (inactive); with XF498, 7.16 µM (inactive).
Regarding `N#Cc1ccccc1NC(=O)C(=O)C(C(=O)c1ccncc1)C1OC(=O)c2ccccc21` (stereo unspecified), the GI50 in the assay with DLD-1, with DMS-114, in the assay with HOP-18, with KM-20L2, in the assay with LXFL 529 and in the assay on RXF 631 was > 100 µM (inactive) each time. Further, the GI50 in the assay on SNB-78 and in the assay on XF498 was > 100 µM (inactive) throughout.
For `Cc1ccc(C2=CC(=O)c3ccccc3C2=O)n1-c1ccccc1`, the GI50 was > 100 µM (inactive) with DLD-1; 24.6 µM (inactive) in the assay on DMS-114; > 100 µM (inactive) in the assay on DMS-273; > 100 µM (inactive) with HOP-18; > 100 µM (inactive) in the assay with KM-20L2; 72.4 µM (inactive) with LXFL 529. The GI50 in the assay on SNB-78 is > 100 µM (inactive); with XF498 it was 48.1 µM (inactive).
As for `COC1=CC(C2c3cc4c(cc3[C@@H](Nc3ccc(F)cc3)C3COC(=O)[C@H]23)OCO4)=CC(=O)C1=O` (stereo partly specified), the GI50 in the assay with DLD-1 was 26.2 µM (inactive); in the assay on DMS-273, 2.93 µM (inactive); in the assay on KM-20L2, 25.7 µM (inactive); in the assay with LXFL 529 it was 11.6 µM (inactive); in the assay on SNB-78, > 51.9 µM (inactive); in the assay on XF498, 5.98 µM (inactive).
Consider `CN(C)c1ccc2c(NCCCCCCNc3ccnc4cc(N(C)C)ccc34)ccnc2c1`, for which the GI50 in the assay on DLD-1 is 43.7 µM (inactive); with DMS-114 it was 6.75 µM (inactive); with DMS-273, 4.03 µM (inactive); in the assay on RXF 631 it was 51.4 µM (inactive); in the assay with SNB-78, 4.79 µM (inactive); in the assay on XF498 it was 2.79 µM (inactive).
In the case of `COc1ccc(C[C@@H]2Cc3cc(OC)c(OC)cc3CN2C)cc1`, the GI50 in the assay with DLD-1 was > 100 µM (inactive); with KM-20L2, > 100 µM (inactive); in the assay with LXFL 529, > 100 µM (inactive); with SNB-78, > 100 µM (inactive); in the assay with XF498, 53.5 µM (inactive).
In the case of `CN(C)c1ccc(-c2cc(O)c3cc4c(cc3n2)OCO4)cc1`, the GI50 with DLD-1, with DMS-114, in the assay on DMS-273, with KM-20L2, with LXFL 529 and in the assay with RXF 631 was > 100 µM (inactive) throughout. Further, the GI50 in the assay with XF498 is > 100 µM (inactive).
